Assay results: patent US9023865B2, “Compounds that are ERK inhibitors” (Merck Sharp & Dohme Corp., priority 2011, dated 2015)
Where two headings read alike, the source gives them in different places.

Target: Active Human ERK2 (hERK2) (Homo sapiens (Human), UniProt P28482)
Assay: Active Human ERK2 (hERK2) Activity Assay (IMAP-FP)
Assay type: biochemical
Outline: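 Phosphorylation by activated human ERK2 (0.5 nM) at 30 μM ATP, peptide substrate 900 nM unlabeled with 80 nM labeled, proceeds 60 min. IMAP beads stop the reaction; after 60 min equilibration, product is measured by fluorescence polarization.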

[1] = phosphorylated active hERK2, 30 μM ATP, average, read-out: ERK 2 Human average IC50
[2] = read-out: AERK2 IC50 (Active human ERK2 Activity Assay)

Chain of Active Human ERK2 (hERK2) (P28482 whole entry): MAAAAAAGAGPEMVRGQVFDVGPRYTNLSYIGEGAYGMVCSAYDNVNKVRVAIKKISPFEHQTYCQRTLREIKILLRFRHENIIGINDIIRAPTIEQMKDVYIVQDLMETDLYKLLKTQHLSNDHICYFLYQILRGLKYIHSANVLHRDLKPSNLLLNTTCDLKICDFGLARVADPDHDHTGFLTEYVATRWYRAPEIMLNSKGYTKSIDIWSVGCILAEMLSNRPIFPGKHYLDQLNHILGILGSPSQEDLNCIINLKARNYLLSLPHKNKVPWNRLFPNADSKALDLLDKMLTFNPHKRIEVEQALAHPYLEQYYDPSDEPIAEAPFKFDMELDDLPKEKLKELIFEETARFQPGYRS

Compound	IC50 [1]	IC50 [2]
C[C@@H](NC(=O)Nc1cc2[nH]nc(-c3cnn(C)c3)c2cn1)c1ccc(Cl)cc1 [Example 59, 1-[(1R)-1-(4-chlorophenyl)ethyl]-3-[3-(1-methyl-1H-pyrazol-4-yl)-1H-pyrazolo[4,3-c]pyridin-6-yl]urea]	0.514 nM	0.2 to 1.7 nM
COc1cncc(-c2n[nH]c3cc(NC(=O)N[C@H](C)c4ccc(F)cc4)ncc23)c1 [Example 253]	3.16 nM	
COC[C@H](NC(=O)Nc1cc2[nH]nc(-c3ccnc(C)c3)c2cn1)c1ccccc1 [Example 587]	12.6 nM	
Cc1cc(-c2n[nH]c3cc(NC(=O)NCc4ccc(-c5ncc[nH]5)cc4)ncc23)ccn1 [Example 371]	59 nM	
Cc1cc(-c2n[nH]c3cc(NC(=O)N[C@@H]4CN(C)C[C@H]4c4ccccc4F)ncc23)ccn1 [Example 184]	0.171 nM	
COc1cccc(F)c1CN1CCC[C@@H](NC(=O)Nc2cc3[nH]nc(-c4ccc(F)cc4)c3cn2)C1 [Example 654]	2.2 nM	
Cc1cc(-c2n[nH]c3c(F)c(NC(=O)N[C@H](C)c4ccc(Cl)cc4)ncc23)ccn1 [Example 534]	0.509 nM	
Cc1cc(-c2n[nH]c3cc(NC(=O)NC(CN)c4ccccc4)ncc23)ccn1 (stereo not drawn) [Example 361]	0.232 nM	
O=C(Nc1cc2[nH]nc(-c3ccc(F)cc3)c2cn1)NC1CCOC1 (stereo not drawn) [Example 609]	5.83 nM	
C[C@@H](NC(=O)Nc1cc2[nH]nc(C(=O)NCC(O)C(F)F)c2cn1)c1ccccc1 (stereo partly drawn) [Example 123]	4.49 nM	
Cc1cc(-c2n[nH]c3cc(NC(=O)N[C@H](c4ccccc4)[C@@H]4CCCO4)ncc23)ccn1 [Example 552]	23.8 nM	
Cc1cc(-c2n[nH]c3cc(NC(=O)NC4c5ccccc5OC(C)(C)C4O)ncc23)ccn1 (stereo not drawn) [Example 530]	53.5 nM	
Cc1cc(-c2n[nH]c3cc(NC(=O)NCc4cscn4)ncc23)ccn1 [Example 432]	0.745 nM	
COC[C@@H](NC(=O)Nc1cc2[nH]nc(-c3ccc(C#N)cc3)c2cn1)c1ccccc1 [Example 607]	0.335 nM	
CCOC[C@@H](NC(=O)Nc1cc2[nH]nc(C(F)F)c2cn1)c1ccccc1 [Example 692]	12 nM	
Cc1cc(-c2n[nH]c3cc(NC(=O)NCc4cccc(Cl)c4)ncc23)ccn1 [Example 27, 1-(3-chlorobenzyl)-3-[3-(2-methylpyridin-4-yl)-1H-pyrazolo[4,3-c]pyridin-6-yl]urea]	0.713 nM	0.2 to 1.7 nM
Cc1cc(-c2n[nH]c3cc(NC(=O)NCc4ccc5c(c4)CNC5=O)ncc23)ccn1 [Example 369]	1.41 nM	
Cc1cc(-c2n[nH]c3cc(NC(=O)N[C@@H](C)c4ccccn4)ncc23)ccn1 [Example 345]	5.37 nM	
C[C@@H](NC(=O)Nc1cc2[nH]nc(C(=O)NCC3CCN(C4CC4)C3)c2cn1)c1ccccc1 (stereo partly drawn) [Example 129]	13.6 nM	
Cc1cc(-c2n[nH]c3cc(NC(=O)NCc4ncc[nH]4)ncc23)ccn1 [Example 427]	1.36 nM	
COc1ccc(CNC(=O)Nc2cc3[nH]nc(C4CC4)c3cn2)cc1 [Example 155]	60.1 nM	
CCS(=O)(=O)c1ccc(-c2n[nH]c3cc(NC(=O)N[C@H](C)c4ccc(F)cc4)ncc23)cn1 [Example 311]	26.2 nM	

Compound	IC50 [1]	IC50 [2]
Cc1cc(-c2n[nH]c3cc(NC(=O)NCCN4CCC(c5ccccc5)C4)ncc23)ccn1 (stereo not drawn) [Example 401]	20 nM	
Cc1cc(-c2n[nH]c3cc(NC(=O)N[C@@H]4c5ccccc5C[C@H]4N(C)C)ncc23)ccn1 [Example 490]	11.3 nM	
COCCNC(=O)Nc1cc2[nH]nc(-c3ccc(F)cc3)c2cn1 [Example 623, 1-[3-(4-Fluorophenyl)-1H-pyrazolo[4,3-c]pyridin-6-yl]-3-(2-methoxyethyl)urea]	1.93 nM	
Cc1cc(-c2n[nH]c3cc(NC(=O)N[C@@H]4CN[C@H](c5ccccc5)C4)ncc23)ccn1 [Example 405]	14.2 nM	
C[C@@H](NC(=O)Nc1cc2[nH]nc(-c3ccc(F)cc3)c2cn1)c1ccccc1 [Example 30, 1-[3-(4-fluorophenyl)-1H-pyrazolo[4,3-c]pyridin-6-yl]-3-[(1R)-1-phenylethyl]urea]	0.85 nM	0.2 to 1.7 nM
NC(=O)Nc1cc2[nH]nc(-c3ccc(F)cc3)c2cn1 [Example 34, 1-(3-(4-fluorophenyl)-1H-pyrazolo[4,3-c]pyridin-6-yl)urea]	1.68 nM	0.2 to 1.7 nM
Cc1cc(-c2n[nH]c3cc(NC(=O)N[C@H]4CN(C)C[C@@H]4c4ccc(F)cc4)ncc23)ccn1 [Example 211]	0.731 nM	
COc1cc(-c2n[nH]c3cc(NC(=O)N[C@H](C)c4ccccc4)ncc23)ccn1 [Example 661]	0.928 nM	
Cc1cc(-c2n[nH]c3cc(NC(=O)NCC4CNC(=O)O4)ncc23)ccn1 (stereo not drawn) [Example 466]	2.81 nM	
COc1ccc(-c2n[nH]c3cc(NC(=O)NCc4ccc(F)cc4)ncc23)cc1 [Example 677]	3.67 nM	
CCCNC(=O)Nc1cc2[nH]nc(-c3ccnc(C)c3)c2cn1 [Example 572]	1.62 nM	
COCCNC(=O)Nc1ncc2c(-c3ccnc(C4CC4)c3)n[nH]c2c1F [Example 610]	3.12 nM	
Cc1cc(-c2n[nH]c3cc(NC(=O)NC(CO)c4cccnc4)ncc23)ccn1 (stereo not drawn) [Example 336]	1.03 nM	
Cc1cc(-c2n[nH]c3cc(NC(=O)NCC(c4ccccn4)N4CCOCC4)ncc23)ccn1 (stereo not drawn) [Example 384]	24.7 nM	
Cc1cc(-c2n[nH]c3cc(NC(=O)NC(CN)c4ccc(F)cc4)ncc23)ccn1 (stereo not drawn) [Example 522]	0.357 nM	
C[C@@H](NC(=O)Nc1cc2[nH]nc(-c3ccnc(C#N)c3)c2cn1)c1ccc(F)cc1 [Example 258]	1.76 nM	
COC[C@H](NC(=O)Nc1cc2[nH]nc(-c3cnn(C)c3)c2cn1)c1ccccc1 [Example 600, 1-[(1R)-2-methoxy-1-phenylethyl]-3-[3-(1-methyl-1H-pyrazol-4-yl)-1H-pyrazolo[4,3-c]pyridin-6-yl]urea]	31.9 nM	
Cc1cc(-c2n[nH]c3cc(NC(=O)N[C@H]4CN(C)C[C@@H]4c4ccccc4C)ncc23)ccn1 [Example 207]	0.537 nM	
Cc1cc(-c2n[nH]c3cc(NC(=O)NC4CCCC(Oc5cccc(F)c5)C4)ncc23)ccn1 (stereo not drawn) [Example 659]	51.9 nM	
Cc1cc(-c2n[nH]c3cc(NC(=O)NCC4CC4)ncc23)ccn1 [Example 35, 1-(cyclopropylmethyl)-3-[3-(2-methylpyridin-4-yl)-1H-pyrazolo[4,3-c]pyridin-6-yl]urea]	2.1 nM	
Cc1cc(-c2n[nH]c3cc(NC(=O)NC4c5ccccc5CC4O)ncc23)ccn1 (stereo not drawn) [Example 332]	1.34 nM	
Cc1cc(-c2n[nH]c3cc(NC(=O)NCC4COc5ccccc5O4)ncc23)ccn1 (stereo not drawn) [Example 459]	2.74 nM	

Compound	IC50 [1]	IC50 [2]
Cc1cc(-c2n[nH]c3c(Cl)c(NC(=O)NCc4ccccc4)ncc23)ccn1 [Example 92, 1-benzyl-3-[7-chloro-3-(2-methylpyridin-4-yl)-1H-pyrazolo[4,3-c]pyridin-6-yl]urea]	6.25 nM	
Cc1cc(-c2n[nH]c3cc(NC(=O)NC4CCc5[nH]nc(C)c5C4)ncc23)ccn1 (stereo not drawn) [Example 507]	0.762 nM	
Cc1cc(-c2n[nH]c3cc(NC(=O)NCCOc4ccccc4)ncc23)ccn1 [Example 453]	1.62 nM	
Cc1cc(-c2n[nH]c3cc(NC(=O)NCc4cn5cccc(C)c5n4)ncc23)ccn1 [Example 393]	13.8 nM	
Cc1cc(-c2n[nH]c3cc(NC(=O)NC(C)c4cccnc4)ncc23)ccn1 (stereo not drawn) [Example 49, 1-[3-(2-methylpyridin-4-yl)-1H-pyrazolo[4,3-c]pyridin-6-yl]-3-(1-pyridin-3-ylethyl)urea]	1.04 nM	0.2 to 1.7 nM
Cc1cc(-c2n[nH]c3cc(NC(=O)N[C@@H](c4ccccc4)C4(O)CCCC4)ncc23)ccn1 [Example 531]	0.545 nM	
Cc1cc(-c2n[nH]c3cc(NC(=O)N[C@H]4CN(C)C[C@@H]4c4ccc(F)nc4)ncc23)ccn1 [Example 179]	1.45 nM	
Cc1cc(-c2n[nH]c3cc(NC(=O)NC(CCN4CCCC4)c4ccncc4)ncc23)ccn1 (stereo not drawn) [Example 378]	55.6 nM	
Cc1cc(-c2n[nH]c3cc(NC(=O)NC(C)c4ccc(-n5cncn5)cc4)ncc23)ccn1 (stereo not drawn) [Example 375]	12.8 nM	
C[C@@H](NC(=O)Nc1cc2[nH]nc(C3CC3)c2cn1)c1ccc(F)cc1 [Example 141]	2.43 nM	
CO[C@@H](C)CNC(=O)Nc1cc2[nH]nc(-c3ccc(F)cc3)c2cn1 [Example 635]	0.873 nM	
Cc1cc(-c2n[nH]c3cc(NC(=O)N[C@H](C)c4ccc(C#N)cc4)ncc23)ccn1 [Example 234]	0.861 nM	
Cc1cc(-c2n[nH]c3cc(NC(=O)NCC(C)c4ccccc4)ncc23)ccn1 (stereo not drawn) [Example 584]	0.679 nM	
Cc1cc(-c2n[nH]c3cc(NC(=O)N[C@H](c4ccccc4)[C@H]4CCCO4)ncc23)ccn1 [Example 551]	41.2 nM	
Cc1cc(-c2n[nH]c3cc(NC(=O)NC(C)(C)c4ccccn4)ncc23)ccn1 [Example 357]	106 nM	
Cc1cc(-c2n[nH]c3cc(NC(=O)NC(C)c4cscn4)ncc23)ccn1 (stereo not drawn) [Example 496]	1.41 nM	
Cc1cc(-c2n[nH]c3cc(NC(=O)NCc4ncon4)ncc23)ccn1 [Example 426]	5.67 nM	
C[C@@H](NC(=O)Nc1cc2[nH]nc(-c3ccc(S(C)(=O)=O)cc3)c2cn1)c1ccccc1 [Example 89, 1-{3-[4-(methylsulfonyl)phenyl]-1H-pyrazolo[4,3-c]pyridin-6-yl}-3-[(1R)-1-phenylethyl]urea]	1.33 nM	0.2 to 1.7 nM
Cc1cc(-c2n[nH]c3cc(NC(=O)N[C@H]4COC[C@@H]4O)ncc23)ccn1 [Example 188]	15.1 nM	
Cc1cc(-c2n[nH]c3cc(NC(=O)NCc4c(F)cccc4Cl)ncc23)ccn1 [Example 440]	0.469 nM	
Cc1cc(-c2n[nH]c3cc(NC(=O)NCc4ccccc4OCC(F)F)ncc23)ccn1 [Example 525]	0.358 nM	
Cc1cc(-c2n[nH]c3cc(NC(=O)Nc4ccc(NCCc5ccccc5)nn4)ncc23)ccn1 [Example 55, 1-[3-(2-methylpyridin-4-yl)-1H-pyrazolo[4,3-c]pyridin-6-yl]-3-{6-[(2-phenylethyl)amino]pyridazin-3-yl}urea]	35 nM	
